Where a name gives a salt, the structure may show the parent alone. Read-outs that look alike come from different tables or passages of the source. Marks after values point to notes of the source that are not given here.
How the values were obtained:
LXR (THP1/LXR-Luc cells) = assay: LXR-luciferase reporter bioassay (Example 31); assay type: cell-based, human; conditions: signal to noise, ratio of RLU of standard one over standard eight; 48 hours
From the text: Generation of assay cell line. To test the efficacy of anti-MSR1 antibody-LXR conjugates in vitro, a cell-based LXR responsive luciferase reporter assay was developed. To generate the assay cell line, a LXR regulated luciferase reporter gene [Cignal Lenti LXR Reporter (luc) kit (Qiagen, Cat #CLS-001 L)] was transduced into THP1 cells, and cells were selected for two weeks in puromycin. The lentivirus expresses the firefly luciferase gene under the control of a minimal CMV promoter and tandem repeats of the LXR transcriptional response element. The resulting cell line is referred to as THP1/LXR-Luc cells.
Assay protocol. THP1/LXR-Luc cells were seeded onto 96 well plates at 40,000 cells/well in media containing RPMI supplemented with 10% FBS and pencillin/streptomycin and subsequently differentiated with 200 nM Phorbol Myristate Acetate (PMA) for 3 days. After the 3-day differentiation period, three-fold serial dilutions of antibody drug conjugates, unconjugated antibodies, or free payloads in fresh media were added to the cells at final concentration ranging from 100 nM to 0.01 nM. Media alone served as a blank control. Forty-eight hours later, luciferase activity was determined after the addition of One-Glo™ reagent (Promega, Cat #E6130) to each well. Relative light units (RLUs) were measured on a Victor luminometer (PerkinElmer) and EC50 values were determined using a four-parameter logistic equation over a 10-point dose response curve (GraphPad Prism). The signal to noise (S/N) was determined by calculating the ratio of RLU of standard one over RLU of standard eight for each of the unconjugated anti-MSR1 antibodies or free payloads. “LP #” represents a linker-payload for which the corresponding structures are provided elsewhere herein, and “P #” represents a payload for which the corresponding structures are provided elsewhere herein.

[1] = system: LPS-induced IL-1β release in differentiated THP-1 cells; assay: LPS-mediated IL-1β release assay; assay type: cell-based, human; conditions: for IC50: Homo sapiens
Protocol: To test the anti-inflammatory properties of anti-MSR1 antibody-steroid conjugates in vitro, a lipopolysaccharide (LPS)-mediated IL-1β release assay was performed. For the assay, THP-1 cells were seeded onto 96 well plates at 40,000 cells/well in media containing RPMI supplemented with 10% FBS and pencillin/streptomycinin and differentiated with 200 nM Phorbol Myristate Acetate (PMA) for 3 days. After the 3-day differentiation period, three-fold serial dilutions of antibody drug conjugates, unconjugated antibodies, or free payloads in fresh media were added to the cells at final concentration ranging from 100 nM to 0.01 nM. Media alone served as a blank control. Subsequently at 24, 48, or 72 hours later, cells were treated with 100 ng/ml LPS (InVivoGen, Cat #tlrl-eklps) for 5 hours. The cell media was then collected, and IL-1β levels were measured using a V-PLEX Proinflammatory Panel 1 human kit (Meso Scale Diagnostics, Cat #15049D-2) as per manufacturer's instructions. Subsequently, the plate was read on a Meso Scale Diagnostics instrument.
IC50 values were determined from a four-parameter logistic equation over a 10-point response curve (GraphPad Prism). All IC50 values are expressed in M (molar) concentration. The IC50 values and IL-1β amount at the maximum concentration of antibody-steroid conjugates or controls are shown in Table 22 each of the time point tested.

[2] = system: Msr1^hu/hu ApoE^−/− mice, peritoneal cells; assay: Ex vivo LPS-induced cytokine production by peritoneal cells after in vivo dosing; set-up: species or system mouse
Protocol: (§1) To examine the anti-inflammatory effect of the anti-MSR1 antibody-steroid conjugates, an ex-vivo and in vivo LPS-induced inflammatory immune response model was performed.
(§2) Generation of a mouse inflammatory immune response model. Mice homozygously expressing human MSR1 extracellular domain in place of the mouse MSR1 extracellular domain and with a homozygous deletion of the ApoE gene were utilized (resulting mice referred to as Msr1^hu/hu ApoE^−/− mice).
(§3) Assay protocol for ex vivo LPS-induced responses. In ex vivo LPS challenge experiments, mice were intraperitoneally administered with 10 μL/g of anti-MSR1 antibody-steroid conjugates (H1H21234N-N297Q-LP13), isotype control steroid conjugate (Isotype control-LP13), unconjugated anti-MSR1 antibody (H1H21234N-N297Q) and isotype control antibodies at different time points (24, 48, and 72 hours) prior to harvesting the peritoneal cells from peritoneal cavity. […] All mice were sacrificed at 0 hour time point and peritoneal cells were obtained from the peritoneum by the peritoneal lavage technique. In brief, 5 mL of ice cold 1×PBS (ThermoFisher Scientific, Cat #20012027) containing 2% BSA (Gibco, Cat #A9576) and 0.6 mM EDTA (ThermoFisher Scientific, Cat #15575020) were injected into the peritoneal cavity using 27 g needle. […] The resuspended cells were plated at 500,000 cells per well in 24-well tissues culture plates and incubated with or without 10 ng/mL of LPS for 18 hours.
Measurement of cytokines at 18 hours post-LPS ex vivo challenge. Supernatants were collected into 96-well round bottom tissue culture plates at 18 hours post-ex vivo LPS challenge and stored at […] until further analysis. Cytokine concentrations in the supernatants were measured using a Proinflammatory Panel 1 (mouse) multiplex immunoassay kit (MesoScale Diagnostics, Cat #K15048D) according to manufacturer's instructions. Electrochemiluminescence was read on a Meso Scale Diagnostics SECTOR® instrument. Data analysis was performed using GraphPad Prism™ software. Statistical significance within the groups was determined by one-way Anova with Turkey's multiple comparison post-test (*p<0.01; **p<0.001; ***p<0.0001).

Msr1^hu/hu ApoE^−/− mice = assay: In vivo LPS-induced cytokine production in serum; set-up: species or system mouse; conditions: 1.48 mg/kg, 2 hours before in vivo LPS
Protocol: as §1, §2
(§4) Assay protocol for in vivo LPS-induced responses. In in vivo LPS challenge experiments, mice were intraperitoneally administered with 10 μL/g of decreasing concentrations of anti-MSR1 antibody-steroid conjugates (H1H21234N-N297Q-LP13) and isotype control steroid conjugate (Isotype control-N297Q-LP13) at 24 hours prior to in vivo LPS challenge. PBS and free steroid P4 were intraperitoneally injected at 2 hours prior to in vivo LPS challenge. At 0 hour time point, three large drops of blood (volume ˜ 100 μL) were collected from the maxillary vein of each mouse into serum gel separator tubes. The tubes were centrifuged at 2200-2500 rpm for 15 minutes, and the serum was collected into 96-well plates for subsequent measurement of cytokines. At 18 hours post in vivo LPS challenge, the peritoneal cells were obtained from periotenal cavity as aforementioned for subsequent flow cytometry analysis.

[3] = system: Msr1^hu/hu ApoE^−/− mice, peritoneal macrophages; assay: LPS-mediated expression of CD80 on peritoneal macrophages (flow cytometry); assay type: in vivo, mouse; conditions: administered 2 hours before
Protocol: as §3, §4
Analysis of expression of activation markers on peritoneal macrophages after LPS ex vivo challenge. Upon collection of supernatants for cytokine analysis, the plates were washed twice with 1×PBS w/o Ca^++/Mg2^++ (ThermoFisher Scientific, Cat #14190144), and the adherent peritoneal cells were harvested by addition of 250-300 μL of cold Macrophage Detachment Solution DXF (PromoCell, Cat #C41330) for 40 minutes. The detached cells were collected into 50-mL tubes and centrifuged at 350×g for 15 minutes. After two washes with 1×PBS supplemented with 2 mM EDTA, the cells were resuspended in Cell Staining Buffer (Biolegend, #420201) and plated at 1×10^6 cells per well in a 96-well V bottom plate. […] Data were analyzed using FlowJo (Tree Star).

[4] = administered 2 hours before peritoneal cell isolation, ex vivo LPS

C[C@]1(C(=O)NC(=O)[C@@]2(C)CCC[C@]3(C)c4cc(NC(=O)[C@@H](N)CO)ccc4CC[C@@H]23)CCC[C@]2(C)c3cc(O)ccc3CC[C@@H]12 [P5, (1S,4aS,10aR)-6-((S)-2-Amino-3-hydroxypropanamido)-N-((1S,4aS,10aR)-6-hydroxy-1,4a-dimethyl-1,2,3,4,4a,9,10,10a-octahydrophenanthrene-1-carbonyl)-1,4a-dimethyl-1,2,3,4,4a,9,10,10a-octahydrophenanthrene-1-carboxamide]
S/N (LXR (THP1/LXR-Luc cells)): 5.7

C[C@]1(C(=O)NC(=O)[C@@]2(C)CCC[C@]3(C)c4cc(NC(=O)[C@@H](N)CCC(=O)O)ccc4CC[C@@H]23)CCC[C@]2(C)c3cc(O)ccc3CC[C@@H]12 [P6, (4S)-4-Amino-4-{[(4bS,8S,8aR)-8-{[(1S,4aS,10aR)-6-hydroxy-1,4a-dimethyl-1,2,3,4,4a,9,10,10a-octahydrophenanthrene-1-carbonyl]carbamoyl}-4b,8-dimethyl-4b,5,6,7,8,8a,9,10-octahydrophenanthren-3-yl]carbamoyl}butanoic acid; trifluoroacetic acid salt]
S/N (LXR (THP1/LXR-Luc cells)): 8.3

C[C@]1(C(=O)NC(=O)[C@@]2(C)CCC[C@]3(C)c4cc(NC(=O)[C@@H](N)CCCCN)ccc4CC[C@@H]23)CCC[C@]2(C)c3cc(O)ccc3CC[C@@H]12 [P7, (1S,4aS,10aR)-N-[(1S,4aS,10aR)-6-Hydroxy-1,4a-dimethyl-1,2,3,4,4a,9,10,10a-octahydrophenanthrene-1-carbonyl]-6-[(2S)-2,6-diaminohexanamido]-1,4a-dimethyl-1,2,3,4,4a,9,10,10a-octahydrophenanthrene-1-carboxamide; trifluoroacetic acid salt]
S/N (LXR (THP1/LXR-Luc cells)): 8.9

CCCC1O[C@@H]2C[C@H]3[C@@H]4C[C@H](F)C5=CC(=O)C=C[C@]5(C)[C@@]4(F)[C@@H](O)C[C@]3(C)[C@]2(C(=O)CN)O1 (mixture of isomers) [P4, (1S,2S,4R,6R,8S,9S,11S,12R,13S,19S)-8-(2-Aminoacetyl)-12,19-difluoro-11-hydroxy-9,13-dimethyl-6-propyl-5,7-dioxapentacyclo[10.8.0.0^2,9.0^4,8.0^13,18]icosa-14,17-dien-16-one]
IL1beta released at max concentration tested ([1]; 24 hour treatment before LPS): 43.39 pg/mL
IL1beta released at max concentration tested ([1]; 48 hour treatment before LPS): 9.3 pg/mL
IL1beta released at max concentration tested ([1]; 72 hour treatment before LPS): 12.95 pg/mL
IC50 ([1]; THP-1, 24-hour time point, 100 ng/ml LPS for 5 hours, read-out: IC50, inhibition of LPS-induced IL-1β secretion): 0.849 nM
IC50 ([1]; THP-1, 48-hour time point, 100 ng/ml LPS for 5 hours, read-out: IC50, inhibition of LPS-induced IL-1β secretion): 1.02 nM
IC50 ([1]; THP-1, 72-hour time point, 100 ng/ml LPS for 5 hours, read-out: IC50, inhibition of LPS-induced IL-1β secretion): 1.2 nM
IC50 ([1]; THP-1, 24 hour treatment before LPS, read-out: EC50 (the source's name)): 0.849 nM
IC50 ([1]; THP-1, 48 hour treatment before LPS, read-out: EC50 (the source's name)): 1.02 nM
IC50 ([1]; THP-1, 72 hour treatment before LPS, read-out: EC50 (the source's name)): 1.2 nM
Cytokine IL-6 [2, 4]: 12.98 ± 5.8**** ng/mL
Cytokine KC-GRO [2, 4]: 2.6 ± 1.3** ng/mL
Cytokine TNF-α [2, 4]: 0.43 ± 0.06** ng/mL
effect on ex vivo LPS-induced cytokine production (IL-6, KC-GRO, TNF-α) by peritoneal cells ([2]; i.p. dosing 24, 48, 72 hours (conjugates, antibodies) or 2 hours (free steroids) before cell harvest, 10 ng/mL LPS 18 hours): Comparable inhibition of LPS-induced immune responses
Cytokine IL-6 in serum (Msr1^hu/hu ApoE^−/− mice): 3.51 ± 0.7 ng/mL
Cytokine KC-GRO in serum (Msr1^hu/hu ApoE^−/− mice): 4.1 ± 1.5 ng/mL
Cytokine TNF-α in serum (Msr1^hu/hu ApoE^−/− mice): 0.09 ± 0.02 ng/mL
LPS-mediated expression of CD80, pMΦ Cells ([3]; hMSR1+F4/80+CD11b+ peritoneal macrophages): 54.7 ± 3.8 % relative to PBS/LPS-treatment
LPS-mediated expression of CD80, non-pMΦ Cells ([3]; hMSR1−F4/80−CD11b− cells): 93.02 ± 4.4 % relative to PBS/LPS-treatment

Source: patent US12497460B2, “Anti-MSR1 antibodies and methods of use thereof” (REGENERON PHARMACEUTICALS, INC., priority 2018, dated 2025)
